Measured values as given in patent US20190175491A1, “TOPICAL COMPOSITIONS OF APREMILAST” (TORRENT PHARMACEUTICALS LIMITED, priority 2016, published 2019).

Columns and labels:
Solubility of apremilast = format: physicochemical
Text: Apremilast is insoluble in water. Even in polar solvent phase, only 0.066% of apremilast was found soluble. Therefore, it is challenging to formulate a topical composition of apremilast having an amount, which provides effective concentration of apremilast at the site of action.

[1] = oral Apremilast; cited from earlier work
[2] = cited from earlier work

apremilast found soluble in polar solvent phase (Solubility of apremilast): 0.066%
Compound: CCOc1cc([C@@H](CS(C)(=O)=O)N2C(=O)c3cccc(NC(C)=O)c3C2=O)ccc1OC [Apremilast, N-{2-[(1S)-1-(3-Ethoxy-4-methoxyphenyl)-2-(methylsulfonyl)ethyl]-1,3-dioxo-2,3-dihydro-1H-isoindol-4-yl} acetamide]
most commonly reported adverse reactions [1]: Diarrhea, nausea and headache
solubility in water [2]: insoluble
